Laboratory results from patent publication US9632034B2, “Fluorogenic and chromogenic substrate” (LI-COR, Inc., priority 2015, dated 2017).
Values belong to the compound of their own block, whether it stands above or below them.

Legend:
HRP-azine system = biological target: T1, HRP-azine system (Armoracia rusticana, UniProt P00433); assay: Optimisation of formulation components (radical enhancer, nucleophilic reagent, oxidant) on western blot; format: biochemical; details: for effect of oxidant on azine oxidization and formation of colored and fluorescent compounds: at certain concentrations, HRP-azine system; for preferred concentration in working solution: by rate of visualization and/or number of colored bands on western blot, PTAS tested 2 to 30 mM, MORP 0 to 20 mM
T1 sequence (P00433 31-338): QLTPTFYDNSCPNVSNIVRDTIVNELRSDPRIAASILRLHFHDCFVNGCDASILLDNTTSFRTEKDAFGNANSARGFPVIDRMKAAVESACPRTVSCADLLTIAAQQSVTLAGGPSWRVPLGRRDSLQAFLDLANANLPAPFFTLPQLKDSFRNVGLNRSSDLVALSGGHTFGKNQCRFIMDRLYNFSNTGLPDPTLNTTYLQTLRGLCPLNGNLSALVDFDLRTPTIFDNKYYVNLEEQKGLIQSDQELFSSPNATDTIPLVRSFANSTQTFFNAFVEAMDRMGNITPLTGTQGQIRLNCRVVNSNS
Protocol: The optimal concentrations of the cation radical enhancer, nucleophilic reagent, solvent system and oxidant in the formulation were also tested. Water soluble azine, particularly 3-(10′-phenothiazinyl)propane-1-sulfonate (PTAS) was tested at various concentrations from 2 to 30 mM in a working solution. The effects were evaluated using the rate (speed) of visualization and the number of colored band on western blot. The preferred concentration of PTAS was 18 mM. Other water soluble and N-substituted PTA derivatives can also be used in place of PTAS or in combination thereof. The nucleophilic reagent serves as a co-substrate in the detection solution. The nucleophilic reagent can include five or six membered nitrogen heteroaromatic ring compounds. MORP at concentrations from 0 to 20 mM was tested in the formulation. Based on the number of colored bands detected, the preferred concentration was 15 mM MORP in the working solution.
Stable oxidants that are compatible with HRP-azine system are tested. Sodium perborate (NaBO3), Urea-H2O2 and stabilized H2O2 at certain concentrations accelerated azine oxidization and formation of colored and fluorescent compounds.

[1] = biological target: T2, HRP-conjugated secondary antibody (Erk protein in C32 cell lysates) (Armoracia rusticana, UniProt P00433); assay: Western blot of Erk protein in C32 cell lysates, near-infrared chemifluorescence detection against chemiluminescent substrate; format: biochemical
T2 sequence (P00433 31-338): T1 sequence (P00433 31-338)
Protocol: A series of tests were performed to determine the optimal concentration of PTA in the detection method. Western blot analysis was performed on cell lysates generated from the C32 cell line that expresses high levels of Erk protein. The lysates were processed according to standard western blotting protocols. Briefly, Erk protein was detected using a primary antibody against Erk (an anti-Erk monoclonal antibody) and an HRP-conjugated secondary antibody (goat anti-mouse IgG antibody). Different concentrations of the PTA substrate were compared by visualization of color formation and detection of protein bands. The limit of detection (LOD) was measured by chemifluorescence signal and compared to the LOD using Thermo Scientific™ SuperSignal™ West Femto Substrate. […] FIG. 5 illustrates the comparison and effect of PTA concentration on LOD of Erk protein in C32 cell lysates.
The exemplary formulation of the detection solution tested comprises two concentrated solutions: Solution A (a first part) and Solution B (a second part). […]
In this experiment Erk protein was detected in C32 cell lysates using a 1:1000 dilution of a monoclonal antibody directed to Erk. […] Near-infrared fluorescence from PTA treated blot was detected using the Odyssey® CLx system set at the 700 channel. Chemiluminescence from the control blot was detected using the Odyssey® Fc imaging system set at the chemiluminescence channel.

[2] = PTA solubility in water and in assay buffer with solubilizers (precipitate visualization, HPLC); format: physicochemical; details: for Appearance of solution: PTA in assay buffer (Tris buffer, pH 9.5) with the named solubilizer at the w/v concentration printed in the table; for Appearance of PTA solution after overnight storage at room temperature: PTA in assay buffer (Tris buffer, pH 9.5) with the named solubilizer
Protocol: Next, the solvent system for phenothiazine (PTA) was tested. […] The solubility of PTA with polymers was tested by precipitate visualization and by HPLC of fresh and stored samples. Table 1 provides a comparison of polymers that include PTA solubility in an assay buffer, such as Tris buffer, pH 9.5.

Compound: OO [stabilized H2O2, hydrogen peroxide]
- effect of oxidant on azine oxidization and formation of colored and fluorescent compounds (HRP-azine system): accelerated

- effect of oxidant on azine oxidization and formation of colored and fluorescent compounds (HRP-azine system): accelerated
Compound: Sodium perborate

- enhancement in sensitivity compared to SuperSignal West Femto Chemiluminescence Substrate ([1]; BLMB formulation with dextran sulfate, DMAP, HNA, citric buffer, NaBO3, final pH 5.0): 2˜4 fold
Compound: CN(C)c1ccc2c(c1)Sc1cc(N(C)C)ccc1N2C(=O)c1ccccc1 [BLMB]

Compound: c1ccc2c(c1)Nc1ccccc1S2 [PTA, 10H-phenothiazine]
- Appearance of solution [2]: cloudy
- Appearance of PTA solution after overnight storage at room temperature [2]: Precipitate,
- PTA concentration given with appearance of PTA solution after overnight storage at room temperature ([2]; assay buffer, no solubilizer added): 0.15 µM
- PTA concentration with the highest sensitivity in working solution ([1]; LOD of Erk protein by chemifluorescence at 700 nm, 0.65, 0.35, 0.15 mM PTA compared): 0.35 mM

Compound: OCCO [Ethylene Glycol (EG), Ethylene Glycol]
- Appearance of solution [2]: cloudy
- Appearance of PTA solution after overnight storage at room temperature [2]: Precipitation,
- PTA concentration given with appearance of PTA solution after overnight storage at room temperature ([2]; PTA in assay buffer with the named solubilizer): 500 µM

Compound: O=S(=O)([O-])CCCN1c2ccccc2Sc2ccccc21.[Na+] [PTAS, sodium 3-(phenothiazine-10-yl)propane-1-sulfonate]
- preferred concentration in working solution (HRP-azine system): 18 mM

- preferred concentration in working solution (HRP-azine system): 15 mM
Compound: c1cc(N2CCOCC2)ccn1 [MORP, 4-morpholinopyridine]

Compound: NC(N)=O.OO [Urea-H2O2, urea-hydrogen peroxide]
- effect of oxidant on azine oxidization and formation of colored and fluorescent compounds (HRP-azine system): accelerated
